Source: the kinase profiling compilation of Christmann-Franck et al. (2016)

Experiments:
Assay in all cases: KINOMEscan competition binding
Settings in all cases: compound 1.0 µM
[1] = target: HIPK1 (human) (UniProt Q86Z02)
[2] = target: MARK1 (human) (UniProt Q9P0L2)
[3] = target: BUB1 (human) (UniProt O43683)
[4] = target: TBK1 (human) (UniProt Q9UHD2)
[5] = target: GAK (human) (UniProt O14976)
[6] = target: DDR1 (human) (UniProt Q08345)
[7] = target: MET (human) (UniProt P08581)
[8] = target: NEK9 (human) (UniProt Q8TD19)
[9] = tested on: EGFR (human), P00533 [G719S]
[10] = target: CDK3 (human) (UniProt Q00526)
[11] = target: STK32C (human) (UniProt Q86UX6)
[12] = target: MYLK4 (human) (UniProt Q86YV6)
[13] = target: CDK16 (human) (UniProt Q00536)
[14] = target: PLK4 (human) (UniProt O00444)
[15] = target: MAP2K4 (human) (UniProt P45985)
[16] = target: NUAK2 (human) (UniProt Q9H093)
[17] = target: SLK (human) (UniProt Q9H2G2)
[18] = tested on: PIK3CA (human), P42336 [Q546K]
[19] = target: SRC (human) (UniProt P12931)
[20] = tested on: KIT (human), P10721 [V559D/T670I]
[21] = target: SIK2 (human) (UniProt Q9H0K1)
[22] = target: MAP3K1 (human) (UniProt Q13233)
[23] = target: MAP3K5 (human) (UniProt Q99683)
[24] = target: EPHB3 (human) (UniProt P54753)
[25] = target: CIT (human) (UniProt O14578)
[26] = target: PLK3 (human) (UniProt Q9H4B4)
[27] = target: INSRR (human) (UniProt P14616)
[28] = target: NEK6 (human) (UniProt Q9HC98)
[29] = tested on: PIK3CA (human), P42336 [E542K]
[30] = target: SRPK2 (human) (UniProt P78362)
[31] = target: PIK3C2G (human) (UniProt O75747)
[32] = target: PRKAA2 (human) (UniProt P54646)
[33] = target: CDK5 (human) (UniProt Q00535)
[34] = target: ABL2 (human) (UniProt P42684)
[35] = target: TAOK2 (human) (UniProt Q9UL54)
[36] = target: EPHA7 (human) (UniProt Q15375)
[37] = target: TSSK1B (human) (UniProt Q9BXA7)
[38] = target: SNRK (human) (UniProt Q9NRH2)
[39] = target: RPS6KA2 KD2 (human) (UniProt Q15349)

Chain of INSRR (human) (P14616 whole entry, looked up): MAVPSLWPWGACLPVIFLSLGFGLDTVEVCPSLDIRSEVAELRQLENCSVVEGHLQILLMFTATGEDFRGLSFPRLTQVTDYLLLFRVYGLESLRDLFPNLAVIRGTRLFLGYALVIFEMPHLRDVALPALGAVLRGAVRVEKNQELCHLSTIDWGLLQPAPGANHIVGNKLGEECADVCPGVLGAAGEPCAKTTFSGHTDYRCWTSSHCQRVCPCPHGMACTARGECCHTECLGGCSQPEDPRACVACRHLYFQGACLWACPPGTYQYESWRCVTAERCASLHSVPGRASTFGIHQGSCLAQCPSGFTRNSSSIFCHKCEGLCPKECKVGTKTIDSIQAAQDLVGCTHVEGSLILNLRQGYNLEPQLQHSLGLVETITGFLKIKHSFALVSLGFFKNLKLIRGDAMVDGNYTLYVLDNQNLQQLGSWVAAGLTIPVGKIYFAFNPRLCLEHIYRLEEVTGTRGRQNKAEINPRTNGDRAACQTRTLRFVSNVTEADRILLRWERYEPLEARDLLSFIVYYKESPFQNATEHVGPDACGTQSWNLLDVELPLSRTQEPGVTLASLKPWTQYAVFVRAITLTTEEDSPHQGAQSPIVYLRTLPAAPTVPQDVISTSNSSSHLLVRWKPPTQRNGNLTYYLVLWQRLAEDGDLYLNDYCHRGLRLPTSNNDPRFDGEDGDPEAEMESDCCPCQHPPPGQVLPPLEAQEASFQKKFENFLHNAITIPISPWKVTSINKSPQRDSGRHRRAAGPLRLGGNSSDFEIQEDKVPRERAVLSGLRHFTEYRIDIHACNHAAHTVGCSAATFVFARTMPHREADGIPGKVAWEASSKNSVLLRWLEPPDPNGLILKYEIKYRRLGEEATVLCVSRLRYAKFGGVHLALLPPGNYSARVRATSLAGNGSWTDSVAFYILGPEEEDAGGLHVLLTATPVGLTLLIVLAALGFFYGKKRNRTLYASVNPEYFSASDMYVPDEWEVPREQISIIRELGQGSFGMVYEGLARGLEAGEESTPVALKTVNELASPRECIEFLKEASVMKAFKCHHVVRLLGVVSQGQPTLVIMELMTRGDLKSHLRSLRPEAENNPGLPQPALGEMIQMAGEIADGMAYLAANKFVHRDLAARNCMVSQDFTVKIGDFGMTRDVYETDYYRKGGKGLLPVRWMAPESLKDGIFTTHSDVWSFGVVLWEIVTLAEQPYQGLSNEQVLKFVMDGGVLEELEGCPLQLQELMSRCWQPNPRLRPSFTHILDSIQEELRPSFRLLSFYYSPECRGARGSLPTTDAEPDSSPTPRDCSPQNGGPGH
Chain of MAP3K1 (human) (Q13233 whole entry, looked up): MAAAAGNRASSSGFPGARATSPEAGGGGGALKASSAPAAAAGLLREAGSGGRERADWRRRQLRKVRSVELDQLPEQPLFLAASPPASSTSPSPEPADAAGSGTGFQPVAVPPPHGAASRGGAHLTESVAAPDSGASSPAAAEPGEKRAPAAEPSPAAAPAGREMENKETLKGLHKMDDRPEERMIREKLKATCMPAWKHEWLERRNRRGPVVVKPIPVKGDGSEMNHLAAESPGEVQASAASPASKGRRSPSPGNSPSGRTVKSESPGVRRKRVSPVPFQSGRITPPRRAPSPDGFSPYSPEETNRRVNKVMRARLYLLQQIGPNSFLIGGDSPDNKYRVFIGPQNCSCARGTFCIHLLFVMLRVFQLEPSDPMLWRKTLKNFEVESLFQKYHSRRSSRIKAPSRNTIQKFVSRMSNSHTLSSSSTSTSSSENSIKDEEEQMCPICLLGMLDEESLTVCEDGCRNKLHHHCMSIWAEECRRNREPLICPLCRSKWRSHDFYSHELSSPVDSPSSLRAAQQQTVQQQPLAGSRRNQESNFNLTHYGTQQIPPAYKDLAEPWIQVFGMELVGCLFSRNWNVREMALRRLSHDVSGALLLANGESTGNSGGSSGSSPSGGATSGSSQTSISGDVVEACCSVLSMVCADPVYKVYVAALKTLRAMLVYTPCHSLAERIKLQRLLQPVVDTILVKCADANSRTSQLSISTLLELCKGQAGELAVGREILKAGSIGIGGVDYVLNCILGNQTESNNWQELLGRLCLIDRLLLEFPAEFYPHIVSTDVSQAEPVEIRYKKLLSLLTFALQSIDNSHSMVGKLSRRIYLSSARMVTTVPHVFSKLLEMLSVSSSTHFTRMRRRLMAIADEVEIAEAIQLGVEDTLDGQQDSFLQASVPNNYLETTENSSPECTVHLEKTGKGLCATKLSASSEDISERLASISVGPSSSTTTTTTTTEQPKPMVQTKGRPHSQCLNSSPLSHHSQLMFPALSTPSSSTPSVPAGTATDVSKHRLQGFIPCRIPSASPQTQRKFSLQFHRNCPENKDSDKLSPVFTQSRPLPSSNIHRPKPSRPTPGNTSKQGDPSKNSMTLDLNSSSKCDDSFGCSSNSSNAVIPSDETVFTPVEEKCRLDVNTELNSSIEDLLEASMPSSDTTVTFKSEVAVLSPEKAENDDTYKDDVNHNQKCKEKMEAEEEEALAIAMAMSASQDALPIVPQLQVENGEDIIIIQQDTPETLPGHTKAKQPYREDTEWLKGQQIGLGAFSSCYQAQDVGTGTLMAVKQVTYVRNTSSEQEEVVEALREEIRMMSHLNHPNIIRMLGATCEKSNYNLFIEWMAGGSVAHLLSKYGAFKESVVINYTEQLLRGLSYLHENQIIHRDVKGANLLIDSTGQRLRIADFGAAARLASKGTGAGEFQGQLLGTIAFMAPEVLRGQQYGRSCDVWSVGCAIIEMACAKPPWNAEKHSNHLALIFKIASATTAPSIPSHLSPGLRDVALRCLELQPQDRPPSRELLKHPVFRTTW
Chain of CDK16 (human) (Q00536 whole entry, looked up): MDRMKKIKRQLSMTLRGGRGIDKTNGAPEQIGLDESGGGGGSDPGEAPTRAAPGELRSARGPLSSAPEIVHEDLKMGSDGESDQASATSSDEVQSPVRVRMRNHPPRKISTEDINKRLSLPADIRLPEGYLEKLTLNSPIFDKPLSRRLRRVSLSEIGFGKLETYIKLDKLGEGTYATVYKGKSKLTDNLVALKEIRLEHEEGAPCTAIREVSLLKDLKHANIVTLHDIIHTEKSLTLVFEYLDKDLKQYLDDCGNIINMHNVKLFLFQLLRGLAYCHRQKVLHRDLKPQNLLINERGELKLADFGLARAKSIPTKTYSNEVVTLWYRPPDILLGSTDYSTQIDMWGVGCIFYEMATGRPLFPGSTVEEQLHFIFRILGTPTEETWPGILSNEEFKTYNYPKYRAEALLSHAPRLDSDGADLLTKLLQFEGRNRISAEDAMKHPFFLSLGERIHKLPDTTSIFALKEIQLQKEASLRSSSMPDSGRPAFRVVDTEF
Chain of KIT (human), P10721 [V559D/T670I] (P10721 whole entry V559D/T670I, looked up): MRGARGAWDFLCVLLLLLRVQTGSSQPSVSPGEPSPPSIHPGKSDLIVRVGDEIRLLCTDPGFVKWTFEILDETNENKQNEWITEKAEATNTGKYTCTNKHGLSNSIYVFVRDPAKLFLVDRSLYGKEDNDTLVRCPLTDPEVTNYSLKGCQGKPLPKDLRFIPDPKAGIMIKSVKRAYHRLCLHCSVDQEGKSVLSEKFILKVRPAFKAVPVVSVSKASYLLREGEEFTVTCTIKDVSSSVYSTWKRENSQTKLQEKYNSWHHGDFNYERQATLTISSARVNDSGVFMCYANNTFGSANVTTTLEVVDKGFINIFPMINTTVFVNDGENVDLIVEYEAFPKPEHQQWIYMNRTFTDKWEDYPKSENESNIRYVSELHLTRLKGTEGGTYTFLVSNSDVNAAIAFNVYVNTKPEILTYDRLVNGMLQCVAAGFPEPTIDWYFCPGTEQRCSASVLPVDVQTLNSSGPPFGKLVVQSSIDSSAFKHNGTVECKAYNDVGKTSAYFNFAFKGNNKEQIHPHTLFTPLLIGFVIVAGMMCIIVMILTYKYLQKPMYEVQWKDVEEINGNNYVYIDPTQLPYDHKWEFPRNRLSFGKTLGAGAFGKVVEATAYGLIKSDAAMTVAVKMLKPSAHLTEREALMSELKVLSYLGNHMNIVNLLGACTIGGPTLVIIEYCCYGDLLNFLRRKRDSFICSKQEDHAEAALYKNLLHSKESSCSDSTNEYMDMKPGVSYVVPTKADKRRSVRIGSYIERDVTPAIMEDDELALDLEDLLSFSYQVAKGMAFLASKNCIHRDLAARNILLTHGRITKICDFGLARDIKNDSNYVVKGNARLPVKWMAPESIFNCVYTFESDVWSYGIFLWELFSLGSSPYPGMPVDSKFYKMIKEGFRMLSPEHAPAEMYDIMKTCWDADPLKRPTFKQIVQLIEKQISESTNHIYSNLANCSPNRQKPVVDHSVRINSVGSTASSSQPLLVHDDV
Chain of NEK6 (human) (Q9HC98 whole entry, looked up): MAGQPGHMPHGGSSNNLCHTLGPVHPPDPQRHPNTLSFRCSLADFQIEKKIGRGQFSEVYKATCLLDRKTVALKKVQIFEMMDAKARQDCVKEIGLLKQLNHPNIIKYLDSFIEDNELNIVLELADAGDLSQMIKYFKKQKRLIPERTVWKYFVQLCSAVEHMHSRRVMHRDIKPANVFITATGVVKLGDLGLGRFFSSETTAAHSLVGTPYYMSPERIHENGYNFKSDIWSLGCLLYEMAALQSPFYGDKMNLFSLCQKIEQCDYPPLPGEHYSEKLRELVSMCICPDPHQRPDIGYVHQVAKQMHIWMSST
Chain of CDK5 (human) (Q00535 whole entry, looked up): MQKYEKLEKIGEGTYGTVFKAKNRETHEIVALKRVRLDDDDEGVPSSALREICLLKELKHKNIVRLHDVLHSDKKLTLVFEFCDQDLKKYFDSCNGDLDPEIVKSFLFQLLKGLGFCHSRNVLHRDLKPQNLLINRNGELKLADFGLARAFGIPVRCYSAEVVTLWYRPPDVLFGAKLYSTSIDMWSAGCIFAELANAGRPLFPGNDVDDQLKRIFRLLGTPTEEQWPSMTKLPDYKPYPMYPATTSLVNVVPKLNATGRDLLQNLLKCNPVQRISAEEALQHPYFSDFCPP

CNc1nc(Nc2ccc(C(=O)N3CCOCC3)cc2OC)ncc1Cl
kinase still bound, per cent of control [1]: 79%
kinase still bound, per cent of control [2]: 45%
kinase still bound, per cent of control [3]: 100%
kinase still bound, per cent of control [4]: 100%
kinase still bound, per cent of control [5]: 25%
kinase still bound, per cent of control [6]: 100%
kinase still bound, per cent of control [7]: 100%
kinase still bound, per cent of control [8]: 93%
kinase still bound, per cent of control [9]: 100%
residual activity [10]: 100%
kinase still bound, per cent of control [11]: 100%
kinase still bound, per cent of control [12]: 100%
residual activity [13]: 100%
kinase still bound, per cent of control [14]: 62%
kinase still bound, per cent of control [15]: 78%
kinase still bound, per cent of control [16]: 100%
kinase still bound, per cent of control [17]: 100%
kinase still bound, per cent of control [18]: 100%
kinase still bound, per cent of control [19]: 100%
kinase still bound, per cent of control [20]: 100%
kinase still bound, per cent of control [21]: 100%
kinase still bound, per cent of control [22]: 65%
kinase still bound, per cent of control [23]: 100%
kinase still bound, per cent of control [24]: 100%
kinase still bound, per cent of control [25]: 100%
kinase still bound, per cent of control [26]: 100%
kinase still bound, per cent of control [27]: 90%
kinase still bound, per cent of control [28]: 100%
kinase still bound, per cent of control [29]: 100%
kinase still bound, per cent of control [30]: 84%
kinase still bound, per cent of control [31]: 71%
kinase still bound, per cent of control [32]: 93%
residual activity [33]: 100%
kinase still bound, per cent of control [34]: 100%
kinase still bound, per cent of control [35]: 88%
kinase still bound, per cent of control [36]: 100%
kinase still bound, per cent of control [37]: 100%
kinase still bound, per cent of control [38]: 100%
kinase still bound, per cent of control [39]: 92%
